The values below come from ChEMBL document CHEMBL1201862, “PubChem BioAssay data set” (2004).

One may read the AC50 as the midpoint of the concentration-response curve, whichever way the signal moves. The IC50 is the concentration that gives 50% inhibition. By EC50 is commonly meant the concentration that produces a half-maximal response. In general, CC50 refers to the concentration giving 50% cytotoxicity.

Active and inactive are the calls of the source. Bounds are passed on as bounds.

One series deals with Cytochrome P450 2C19 (Homo sapiens, UniProt P33261). The series can be described thus: Cytochrome panel assay with activity outcomes. Panel member name: p450-cyp2c19 Compounds with AC50 equal or less than 10 uM are considered active. It counts as functional. To be noted: read-out: AC50.
The next series deals with Cytochrome P450 2C9 (Homo sapiens, UniProt P11712).
Series [1] is described as follows: HEK-293T viability loss after treatment – luminescence, T-cell screen hits, cytotoxicity control for TCR NF-kB inhibitor project, dose response (AID 489026).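 Further: cells exposed to compound about 14 hours before the viability readout.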 It counts as functional, cell-based.
For series [2], the system named is BJ. Put plainly: cells. Format: functional, cell-based. To be noted: Homo sapiens.
A further series deals with T1, Aminopeptidase N (Plasmodium falciparum FcB1/Columbia, UniProt O96935).
T1 sequence (O96935 whole entry): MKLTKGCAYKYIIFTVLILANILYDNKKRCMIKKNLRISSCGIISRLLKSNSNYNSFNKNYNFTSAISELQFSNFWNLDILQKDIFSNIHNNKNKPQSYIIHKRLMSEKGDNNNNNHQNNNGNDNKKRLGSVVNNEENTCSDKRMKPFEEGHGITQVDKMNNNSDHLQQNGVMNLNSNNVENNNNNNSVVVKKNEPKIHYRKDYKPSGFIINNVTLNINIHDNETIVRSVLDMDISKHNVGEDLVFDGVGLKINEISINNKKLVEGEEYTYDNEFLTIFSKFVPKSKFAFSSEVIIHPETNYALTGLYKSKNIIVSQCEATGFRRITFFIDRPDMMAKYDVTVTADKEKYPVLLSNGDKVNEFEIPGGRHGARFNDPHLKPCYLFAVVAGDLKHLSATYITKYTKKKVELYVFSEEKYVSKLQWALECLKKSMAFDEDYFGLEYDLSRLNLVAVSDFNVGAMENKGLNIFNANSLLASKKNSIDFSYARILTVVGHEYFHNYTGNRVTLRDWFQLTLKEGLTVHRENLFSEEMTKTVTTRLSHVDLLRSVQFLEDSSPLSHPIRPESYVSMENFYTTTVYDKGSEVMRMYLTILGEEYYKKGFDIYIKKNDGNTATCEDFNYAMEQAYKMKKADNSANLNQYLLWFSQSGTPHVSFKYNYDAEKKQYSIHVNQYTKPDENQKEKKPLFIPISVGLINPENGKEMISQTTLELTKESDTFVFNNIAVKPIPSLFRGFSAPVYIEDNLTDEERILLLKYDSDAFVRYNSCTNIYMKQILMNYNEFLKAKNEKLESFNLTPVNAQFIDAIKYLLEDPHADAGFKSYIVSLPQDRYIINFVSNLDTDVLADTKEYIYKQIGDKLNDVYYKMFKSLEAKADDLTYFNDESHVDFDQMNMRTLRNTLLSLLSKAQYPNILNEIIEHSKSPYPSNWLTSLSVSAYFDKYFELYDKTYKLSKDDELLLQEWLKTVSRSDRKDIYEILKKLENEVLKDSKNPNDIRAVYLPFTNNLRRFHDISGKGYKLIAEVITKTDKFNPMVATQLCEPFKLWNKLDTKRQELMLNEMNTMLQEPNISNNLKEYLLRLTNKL
Put plainly: malaria alanyl aminopeptidase activity blockers – biochemical, fluorogenic H-Leu-NHMec substrate, 1536-well (AID 1445). Further details: species or system Plasmodium falciparum 3D7, 3D7.

The next series has as its target T2, Caspase-6 (Homo sapiens, UniProt P55212).
T2 sequence (P55212 whole entry): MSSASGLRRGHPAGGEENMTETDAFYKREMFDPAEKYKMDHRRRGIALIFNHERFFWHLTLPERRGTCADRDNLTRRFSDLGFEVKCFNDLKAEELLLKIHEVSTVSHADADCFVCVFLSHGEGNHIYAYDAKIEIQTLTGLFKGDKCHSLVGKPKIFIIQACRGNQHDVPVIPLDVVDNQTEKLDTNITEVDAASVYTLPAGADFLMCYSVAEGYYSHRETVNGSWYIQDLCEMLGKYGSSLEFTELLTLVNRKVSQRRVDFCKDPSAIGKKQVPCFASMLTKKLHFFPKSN
Put plainly: inhibition of CASP6 peptide cleavage – biochemical, VEID-R110 fluorescence, cherry-pick, dose response (AID 720632).

The target of series [3] is T3, Microphthalmia-associated transcription factor (Homo sapiens, UniProt O75030).
T3 sequence (O75030 whole entry): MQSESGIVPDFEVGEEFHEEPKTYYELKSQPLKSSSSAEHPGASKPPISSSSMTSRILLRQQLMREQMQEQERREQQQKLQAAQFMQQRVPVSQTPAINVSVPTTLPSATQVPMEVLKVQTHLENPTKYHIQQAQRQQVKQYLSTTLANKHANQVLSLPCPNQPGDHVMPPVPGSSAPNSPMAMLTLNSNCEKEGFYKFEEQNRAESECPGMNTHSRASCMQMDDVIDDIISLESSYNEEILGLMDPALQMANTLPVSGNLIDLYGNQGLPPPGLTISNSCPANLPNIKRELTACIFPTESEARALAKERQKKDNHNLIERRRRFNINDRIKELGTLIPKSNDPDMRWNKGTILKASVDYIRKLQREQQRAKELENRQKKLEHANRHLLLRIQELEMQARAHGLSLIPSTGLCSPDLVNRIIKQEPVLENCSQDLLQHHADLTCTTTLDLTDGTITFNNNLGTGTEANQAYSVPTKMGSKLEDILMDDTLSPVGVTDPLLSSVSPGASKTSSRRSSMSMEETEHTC
The series can be described thus: reducers of TRPM1 reporter luminescence, concentration series – cell-based, SK-MEL-5, cherry-picked, set 3, MITF inhibitor project, dose response (AID 493073).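 Further: SK-MEL-5 melanoma cells with luciferase driven by the MITF target TRPM1 promoter.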 Format: functional.

Series [4] in a line: blockade of melanocortin 4 receptor signaling – cell-based, plate reader, cherry pick, counter-screen for LGR2 antagonist project, dose response (AID 743444).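 Further: transfected HEK 293 cells stimulated with alpha-MSH peptide; potency of inhibitors of the alpha-MSH evoked signal.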 Format: functional. In general terms: Counterscreens check selectivity or assay interference.
A short description of series [5]: DRD fibroblast viability loss – cell-based, non-viral oncogenic, luminescence, dose response (AID 1934). Format: functional. The following applies: Homo sapiens.
Series [6] has as its system BJ. The series can be described thus: BJ-TERT fibroblast viability loss – cell-based, RAS-independent, luminescence, dose response (AID 1933). It counts as functional. The following applies: Homo sapiens.
The nature of series [7]: toxicity toward HepG2 liver cells – cell-based, plate reader, cherry-pick, antagonist series, cytotoxicity control, dose response (AID 743416). It counts as functional.
Series [8] can be described thus: blockers of bursicon-stimulated LGR2 cAMP reporter – cell-based, HEK293, CRE-luciferase reporter, cherry pick, set 2, dose response (AID 743343).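 Further: transfected cells were stimulated with diluted bursicon conditioned medium after compound addition.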 It counts as functional. On the technique in general: A reporter such as luciferase makes a cellular process visible.
Another series concerns Vero. The series can be described thus: cells. The following applies: Chlorocebus sabaeus. It counts as functional.
A short description of series [9]: viability loss in HEK293 cells – cell-based, plate reader, cherry-picked samples, cytotoxicity control, dose response (AID 743446). It counts as functional.
Series [10] can be described thus: A549 cell cytotoxicity, dose response, cytotoxicity control, plate reader, cherry-pick, antagonist series (AID 743412). It counts as functional, cell-based.
Series [11] concerns BJ. The series can be described thus: BJ-TERT-LT-ST fibroblast viability loss – cell-based, RAS-independent, luminescence, dose response (AID 1935).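 Further: BJ fibroblasts immortalized with TERT plus LT and ST oncogenes.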 The following applies: Homo sapiens. Format: functional.
Series [12] concerns the target DNA dC->dU-editing enzyme APOBEC-3G (Homo sapiens, UniProt Q9HC16). Format: functional.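 Further: Dose-response counterscreen measuring inhibition of APOBEC3G DNA deaminase activity, run while confirming APOBEC3A inhibitors.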
Series [13] addresses DNA dC->dU-editing enzyme APOBEC-3A (Homo sapiens, UniProt P31941). The series can be described thus: Dose Response confirmation of small molecule APOBEC3A DNA Deaminase Inhibitors via a fluorescence-based single-stranded DNA deaminase assay. [Related pubchem assays (depositor defined):AID493011, AID493024]. Format: functional.
Series [14] concerns the target T4, Carboxy-terminal domain RNA polymerase II polypeptide A small phosphatase 1 (Homo sapiens, UniProt Q9GZU7).
T4 sequence (Q9GZU7 whole entry): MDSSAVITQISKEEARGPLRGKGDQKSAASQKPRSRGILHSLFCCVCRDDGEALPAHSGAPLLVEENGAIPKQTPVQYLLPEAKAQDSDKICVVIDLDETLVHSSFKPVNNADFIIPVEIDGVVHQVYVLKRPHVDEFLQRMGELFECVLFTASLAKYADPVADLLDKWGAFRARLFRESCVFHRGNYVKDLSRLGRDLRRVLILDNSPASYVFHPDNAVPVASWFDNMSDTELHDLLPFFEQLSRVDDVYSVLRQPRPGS
Put plainly: CTDSP1 inhibitors, concentration-response, biochemical, absorbance readout, ultra-high-throughput screen actives (AID 540297). It counts as functional.

A short description of series [15]: Trypanosoma cruzi growth suppression in host cells – NIH3T3 host cells, beta-gal luminescence, confirmation (AID 2044).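 Further: intracellular parasites grown in NIH/3T3 mouse fibroblasts as host cells; luminescent beta-galactosidase reporter signal from transgenic T. cruzi replicating inside host cells; inhibitors lower the luminescence signal.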 It counts as functional, cell-based.
The target in a further series is T5, Cytochrome P450 1A2 (Homo sapiens, UniProt P05177).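 Further: PubChem cytochrome P450 panel assay, CYP1A2 panel member.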
T5 sequence (P05177 whole entry): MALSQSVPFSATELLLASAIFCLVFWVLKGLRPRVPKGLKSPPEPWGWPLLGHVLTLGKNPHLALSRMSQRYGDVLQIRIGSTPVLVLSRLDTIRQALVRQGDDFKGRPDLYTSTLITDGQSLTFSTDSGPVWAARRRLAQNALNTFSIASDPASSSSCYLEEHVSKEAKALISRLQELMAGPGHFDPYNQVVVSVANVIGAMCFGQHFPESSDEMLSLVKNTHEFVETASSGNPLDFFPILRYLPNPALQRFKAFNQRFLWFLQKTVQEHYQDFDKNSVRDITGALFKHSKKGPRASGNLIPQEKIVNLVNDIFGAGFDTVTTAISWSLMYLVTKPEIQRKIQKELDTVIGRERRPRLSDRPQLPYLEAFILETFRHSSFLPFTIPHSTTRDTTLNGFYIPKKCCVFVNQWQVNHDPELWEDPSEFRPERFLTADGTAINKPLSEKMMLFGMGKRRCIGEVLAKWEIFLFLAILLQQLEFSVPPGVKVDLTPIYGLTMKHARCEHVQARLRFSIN

A short description of series [16]: NIH3T3 cell viability loss – ATP luminescence, mouse fibroblasts, counter-screen, dose response (AID 2010).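 Further: cells exposed to compound for about 90 hours before reading.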 It counts as functional, cell-based.

Cytochrome P450 2C9, sequence (P11712 whole entry): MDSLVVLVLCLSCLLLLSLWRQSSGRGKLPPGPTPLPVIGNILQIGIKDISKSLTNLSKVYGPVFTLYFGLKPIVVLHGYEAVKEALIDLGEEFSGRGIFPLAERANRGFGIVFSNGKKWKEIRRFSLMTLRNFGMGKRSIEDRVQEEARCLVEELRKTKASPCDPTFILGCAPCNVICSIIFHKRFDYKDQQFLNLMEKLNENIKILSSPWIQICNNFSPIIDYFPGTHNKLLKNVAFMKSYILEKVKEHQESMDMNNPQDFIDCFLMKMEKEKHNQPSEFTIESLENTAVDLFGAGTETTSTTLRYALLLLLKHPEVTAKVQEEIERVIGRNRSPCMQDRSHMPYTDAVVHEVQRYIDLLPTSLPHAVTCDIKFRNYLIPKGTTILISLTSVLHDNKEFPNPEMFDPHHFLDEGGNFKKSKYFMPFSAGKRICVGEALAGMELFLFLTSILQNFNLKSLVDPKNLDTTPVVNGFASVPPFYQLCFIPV
DNA dC->dU-editing enzyme APOBEC-3A, sequence (P31941 whole entry, the tested form may be a part): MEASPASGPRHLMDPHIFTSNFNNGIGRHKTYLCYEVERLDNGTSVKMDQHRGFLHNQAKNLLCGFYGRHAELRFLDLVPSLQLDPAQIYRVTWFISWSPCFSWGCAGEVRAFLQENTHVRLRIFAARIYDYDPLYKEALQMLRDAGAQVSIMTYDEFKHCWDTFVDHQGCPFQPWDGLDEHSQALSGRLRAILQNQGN
DNA dC->dU-editing enzyme APOBEC-3G, sequence (Q9HC16 whole entry): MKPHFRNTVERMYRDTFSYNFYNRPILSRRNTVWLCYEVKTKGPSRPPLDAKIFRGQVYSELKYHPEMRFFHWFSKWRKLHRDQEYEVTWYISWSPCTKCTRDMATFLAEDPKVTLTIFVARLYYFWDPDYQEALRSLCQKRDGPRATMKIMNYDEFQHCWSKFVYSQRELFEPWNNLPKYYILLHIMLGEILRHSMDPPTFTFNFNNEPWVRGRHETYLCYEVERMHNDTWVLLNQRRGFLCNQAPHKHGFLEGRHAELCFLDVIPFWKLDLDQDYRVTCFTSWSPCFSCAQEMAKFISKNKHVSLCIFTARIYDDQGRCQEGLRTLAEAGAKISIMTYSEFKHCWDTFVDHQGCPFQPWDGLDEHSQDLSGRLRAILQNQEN
Cytochrome P450 2C19, sequence (P33261 whole entry): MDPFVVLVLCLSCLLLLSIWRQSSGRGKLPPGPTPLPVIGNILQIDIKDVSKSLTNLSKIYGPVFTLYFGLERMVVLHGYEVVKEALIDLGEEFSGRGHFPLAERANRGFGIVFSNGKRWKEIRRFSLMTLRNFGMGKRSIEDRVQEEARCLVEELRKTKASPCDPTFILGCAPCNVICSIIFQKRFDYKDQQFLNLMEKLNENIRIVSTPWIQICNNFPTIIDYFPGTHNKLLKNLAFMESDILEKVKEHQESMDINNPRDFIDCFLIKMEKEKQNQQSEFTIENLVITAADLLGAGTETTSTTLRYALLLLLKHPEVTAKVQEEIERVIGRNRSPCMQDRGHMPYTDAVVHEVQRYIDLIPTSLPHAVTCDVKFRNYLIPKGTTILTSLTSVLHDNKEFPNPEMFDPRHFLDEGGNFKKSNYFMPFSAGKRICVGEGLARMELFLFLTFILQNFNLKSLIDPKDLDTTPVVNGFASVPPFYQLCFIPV

For `Cc1ccc(Nc2nc(-c3c(C)nc4ncccn34)cs2)cc1`, the figures for the half-maximal activity concentration (AC50) at Cytochrome P450 2C19 and on Cytochrome P450 2C9 were 31.6 nM (inconclusive) and “inconclusive”, respectively. Besides, in series [1], the IC50 is 36.5 µM (inactive). The half-maximal effective concentration (EC50) with BJ [2] is 60.6 µM (active).

Regarding `Cc1cccc(NC(=O)N(Cc2cc3cc(C)ccc3[nH]c2=O)CC2COCCO2)c1` (stereo not drawn), the 50% inhibitory concentration (IC50) on Aminopeptidase N was 45.9 µM (active).

As to `Cc1ccc(NC(=O)C(C)N2C(=O)c3ccccc3C2=O)cc1S(=O)(=O)N1CCOCC1` (stereo not drawn), the IC50 on Aminopeptidase N was 115 µM (active).

As for `CC(C)CNC(=O)CCCc1c[nH]c2ccccc12.O=C(O)C(=O)O`, on Cytochrome P450 2C9, the AC50 entry is on record as “inconclusive”.

In the case of `O=S(=O)(c1ccc(F)cc1)c1snnc1-c1ccccc1`, the concentration at half-maximal activity (AC50) at Caspase-6 is 6.26 µM (active); in [3], 15.1 µM (active); in series [4], 5.8 µM (active); in series [7], 46.5 µM (active); in [8], 9.39 µM (active); in series [9] it was 4.15 µM (active). Also, in series [10], the AC50 was 11.1 µM (active). The EC50 in [5] is 7.55 µM (active); in the series with BJ [6], 4.69 µM (inconclusive); in the series with BJ [2] it was 6.66 µM (inconclusive); with BJ [11] it was 6.51 µM (inconclusive). Moreover, in the series on Vero, the cytotoxic concentration (CC50) was 6.75 µM (active).

Consider `CSc1nnc(-c2ccncc2)n1CCCN1CCCC1=O`, for which the half-inhibitory concentration (IC50) in [12] was 3.35 µM (active); in series [13], 2.76 µM (active).

As to `C[n+]1ccc(C(=O)Nc2ccccc2Cl)cc1`, the figures for the half-maximal inhibitory concentration (IC50) in series [12], in [13] and in series [14] were 1.72 µM (active), 2.01 µM (active) and 7.68 µM (active), respectively.

As to `O=C(Nc1ncc(Cc2cc(Cl)ccc2Cl)s1)c1ccc([N+](=O)[O-])cc1`, the half-maximal effective concentration (EC50) is 1.31 µM (active) in [15] and > 30 µM (not active) in [16]. The values for the AC50 result at Cytochrome P450 2C9 and at Cytochrome P450 1A2 were “inconclusive” and 5.62 µM (inconclusive), respectively.
